Experimental data reported in ChEMBL document CHEMBL4376820, “Homodimeric Tobramycin Adjuvant Repurposes Novobiocin as an Effective Antibacterial Agent against Gram-Negative Bacteria” (J Med Chem, 2019).
Calls of active or inactive are those of the source. The rule behind the calls is not given here.

Columns and labels:
Acinetobacter baumannii [1] = test: Bactericidal activity against Acinetobacter baumannii ATCC 17978 assessed as log reduction in colony forming units per ml at 7.1 uM in LB media after 9 hrs in presence of 50.4 uM novobiocin by time-kill assay; assay type: functional
Pseudomonas aeruginosa [2] = test: Synergistic antibacterial activity against wild type Pseudomonas aeruginosa PAO1 assessed as potentiation of chloramphenicol-induced antibacterial effect incubated for 18 hrs by checkerboard assay relative to chloramphenicol alone; assay type: functional
Pseudomonas aeruginosa [3] = test: Synergistic antibacterial activity against wild type Pseudomonas aeruginosa PAO1 assessed as potentiation of ceftazidime-induced antibacterial effect incubated for 18 hrs by checkerboard assay; assay type: functional, organism-based
Pseudomonas aeruginosa [4] = test: Synergistic antibacterial activity against wild type Pseudomonas aeruginosa PAO1 assessed as potentiation of meropenem-induced antibacterial effect incubated for 18 hrs by checkerboard assay; assay type: functional, organism-based
Escherichia coli [5] = test: Antibacterial activity against wild type Escherichia coli ATCC 25922 incubated for 18 hrs by CLSI protocol based assay; assay type: functional; details: ATCC 25922, 18 h
Acinetobacter baumannii [6] = test: Bactericidal activity against Acinetobacter baumannii ATCC 17978 assessed as log reduction in colony forming units per ml at 7.1 uM in LB media after 9 hrs by time-kill assay; assay type: functional
Pseudomonas aeruginosa [7] = test: Synergistic antibacterial activity against wild type Pseudomonas aeruginosa PAO1 assessed as potentiation of fosfomycin-induced antibacterial effect incubated for 18 hrs by checkerboard assay relative to fosfomycin alone; assay type: functional
Pseudomonas aeruginosa [8] = test: Induction of outer membrane permeabilization in Pseudomonas aeruginosa PAO1 assessed as increase in accumulation of NPN by measuring fluorescence intensity measured immediately by NPN dye uptake assay; assay type: organism-based
Enterobacter cloacae [9] = test: Potentiation of novobiocin-induced antibacterial activity against colistin-resistant Enterobacter cloacae 118568 clinical solate assessed as novobiocin MIC at <= 7.1 uM incubated for 18 hrs by CLSI protocol based assay (reference value: 1024 ug/ml); assay type: functional; details: Enterobacter cloacae, 118568, 18 h
Klebsiella pneumoniae = test: Bactericidal activity against Klebsiella pneumoniae 116381 assessed as log reduction in colony forming units per ml at 7.1 in LB media after 24 hrs in presence of 50.4 uM novobiocin by time-kill assay; assay type: functional, organism-based
Escherichia coli [10] = test: Potentiation of novobiocin-induced antibacterial activity against carbapenem-resistant Escherichia coli 107115 clinical isolate harboring mcr-1 gene assessed as novobiocin MIC at <= 7.1 uM incubated for 18 hrs by CLSI protocol based assay (reference value: 128 ug/ml); assay type: functional; details: Escherichia coli, 107115, 18 h
Acinetobacter baumannii [11] = test: Potentiation of novobiocin-induced antibacterial activity against Acinetobacter baumannii 031 clinical isolate assessed as novobiocin MIC at <= 7.1 uM incubated for 18 hrs by CLSI protocol based assay (reference value: 8 ug/ml); assay type: functional; details: Acinetobacter baumannii, 031, 18 h
Pseudomonas aeruginosa [12] = test: Synergistic antibacterial activity against wild type Pseudomonas aeruginosa PAO1 assessed as potentiation of linezolid-induced antibacterial effect incubated for 18 hrs by checkerboard assay relative to linezolid alone; assay type: functional
Pseudomonas aeruginosa [13] = test: Antibacterial activity against carbapenem and colistin-resistant Pseudomonas aeruginosa 91433 clinical isolate incubated for 18 hrs by CLSI protocol based assay; assay type: functional; details: Pseudomonas aeruginosa, 91433, 18 h
Pseudomonas aeruginosa [14] = test: Antibacterial activity against carbapenem and colistin-resistant Pseudomonas aeruginosa 114228 clinical incubated for 18 hrs by CLSI protocol based assay B84; assay type: functional; details: Pseudomonas aeruginosa, 114228, 18 h
Pseudomonas aeruginosa [15] = test: Antibacterial activity against carbapenem-resistant Pseudomonas aeruginosa 101885 clinical isolate incubated for 18 hrs by CLSI protocol based assay; assay type: functional; details: Pseudomonas aeruginosa, 101885, 18 h
Escherichia coli [16] = test: Potentiation of novobiocin-induced antibacterial activity against colistin-resistant Escherichia coli 94393 clinical isolate harboring mcr-1 gene assessed as fold reduction in novobiocin MIC incubated for 18 hrs by CLSI protocol based assay relative to novobiocin MIC; assay type: functional
Pseudomonas aeruginosa [17] = test: Synergistic antibacterial activity against wild type Pseudomonas aeruginosa PAO1 assessed as potentiation of levofloxacin-induced antibacterial effect incubated for 18 hrs by checkerboard assay relative to levofloxacin alone; assay type: functional
Pseudomonas aeruginosa [18] = test: Potentiation of novobiocin-induced antibacterial activity against carbapenem and colistin-resistant Pseudomonas aeruginosa 114228 clinical isolate assessed as novobiocin MIC at <= 7.1 uM incubated for 18 hrs by CLSI protocol based assay (reference value: 512 ug/ml); assay type: functional; details: Pseudomonas aeruginosa, 114228, 18 h
Enterobacter cloacae [19] = test: Antibacterial activity against Enterobacter cloacae 117029 clinical solate incubated for 18 hrs by CLSI protocol based assay; assay type: functional; details: Enterobacter cloacae, 117029, 18 h
Acinetobacter baumannii [20] = test: Potentiation of novobiocin-induced antibacterial activity against Acinetobacter baumannii LAC-4 clinical isolate assessed as fold reduction in novobiocin MIC incubated for 18 hrs by CLSI protocol based assay relative to novobiocin MIC; assay type: functional
Pseudomonas aeruginosa [21] = test: Potentiation of novobiocin-induced antibacterial activity against wild type Pseudomonas aeruginosa PAO1 assessed as fold reduction in novobiocin MIC incubated for 18 hrs by CLSI protocol based assay relative to novobiocin MIC; assay type: functional
Enterobacter cloacae [22] = test: Antibacterial activity against colistin-resistant Enterobacter cloacae 121187 clinical solate incubated for 18 hrs by CLSI protocol based assay; assay type: functional; details: Enterobacter cloacae, 121187, 18 h
Pseudomonas aeruginosa [23] = test: Antibacterial activity against colistin and carbapenem-resistant Pseudomonas aeruginosa 101243 clinical isolate incubated for 18 hrs by CLSI protocol based assay; assay type: functional; details: Pseudomonas aeruginosa, 101243, 18 h
Escherichia coli [24] = test: Potentiation of novobiocin-induced antibacterial activity against wild type Escherichia coli ATCC 25922 assessed as fold reduction in novobiocin MIC incubated for 18 hrs by CLSI protocol based assay relative to novobiocin MIC; assay type: functional
Enterobacter cloacae [25] = test: Potentiation of novobiocin-induced antibacterial activity against Enterobacter cloacae 117029 clinical solate assessed as novobiocin MIC at <= 7.1 uM incubated for 18 hrs by CLSI protocol based assay (reference value: 1024 ug/ml); assay type: functional; details: Enterobacter cloacae, 117029, 18 h
Enterobacter cloacae [26] = test: Potentiation of novobiocin-induced antibacterial activity against colistin-resistant Enterobacter cloacae 121187 clinical solate assessed as fold reduction in novobiocin MIC incubated for 18 hrs by CLSI protocol based assay relative to novobiocin MIC; assay type: functional
Enterobacter cloacae [27] = test: Antibacterial activity against colistin-resistant Enterobacter cloacae 118568 clinical solate incubated for 18 hrs by CLSI protocol based assay; assay type: functional; details: Enterobacter cloacae, 118568, 18 h
Pseudomonas aeruginosa [28] = test: Potentiation of novobiocin-induced antibacterial activity against carbapenem and colistin-resistant Pseudomonas aeruginosa 91433 clinical isolate assessed as fold reduction in novobiocin MIC incubated for 18 hrs by CLSI protocol based assay relative to novobiocin MIC; assay type: functional
Pseudomonas aeruginosa [29] = test: Synergistic antibacterial activity against wild type Pseudomonas aeruginosa PAO1 assessed as potentiation of ciprofloxacin-induced antibacterial effect incubated for 18 hrs by checkerboard assay relative to ciprofloxacin alone; assay type: functional
Escherichia coli [30] = test: Bactericidal activity against Escherichia coli ATCC […] assessed as log reduction in colony forming units per ml at 7.1 uM in LB media after 9 hrs by time-kill assay; assay type: functional
Pseudomonas aeruginosa [31] = test: Synergistic antibacterial activity against wild type Pseudomonas aeruginosa PAO1 assessed as potentiation of piperacillin-induced antibacterial effect incubated for 18 hrs by checkerboard assay relative to piperacillin alone; assay type: functional
Pseudomonas aeruginosa [32] = test: Antibacterial activity against wild type Pseudomonas aeruginosa PAO1 assessed as fractional inhibitory concentration index incubated for 18 hrs in presence of colistin by checkerboard assay; assay type: functional

For `NC[C@H]1O[C@H](O[C@H]2[C@H](OCCCCc3cn(CCCCO[C@@H]4[C@@H](O[C@H]5O[C@H](CO)[C@@H](O)[C@H](N)[C@H]5O)[C@H](N)C[C@H](N)[C@H]4O[C@H]4O[C@H](CN)[C@@H](O)C[C@H]4N)nn3)[C@@H](O[C@H]3O[C@H](CO)[C@@H](O)[C@H](N)[C@H]3O)[C@H](N)C[C@@H]2N)[C@H](N)C[C@@H]1O.O=C(O)C(F)(F)F.O=C(O)C(F)(F)F.O=C(O)C(F)(F)F.O=C(O)C(F)(F)F.O=C(O)C(F)(F)F.O=C(O)C(F)(F)F.O=C(O)C(F)(F)F.O=C(O)C(F)(F)F.O=C(O)C(F)(F)F.O=C(O)C(F)(F)F`, the Activity (Acinetobacter baumannii [1]) was -5 CFU/ml, the “fold change (FC)” value (Pseudomonas aeruginosa [2]) was 4 - 128 and the Activity (Pseudomonas aeruginosa [3]) was “Dose-dependent effect”. The Activity (Pseudomonas aeruginosa [4]) was “Dose-dependent effect”, the MIC (Escherichia coli [5]) was > 128 µg/mL and the Activity (Acinetobacter baumannii [6]) was -3 CFU/ml. The “fold change (FC)” value (Pseudomonas aeruginosa [7]) was 4 - 128, the Activity (Pseudomonas aeruginosa [8]) was “Dose-dependent effect” and the MIC (Enterobacter cloacae [9]) was 32 µg/mL. The Activity (Klebsiella pneumoniae) was “Active”, the MIC (Escherichia coli [10]) was 8 µg/mL and the MIC (Acinetobacter baumannii [11]) was 0.5 µg/mL. The “fold change (FC)” value (Pseudomonas aeruginosa [12]) was 4 - 128, the MIC (Pseudomonas aeruginosa [13]) was > 128 µg/mL and the MIC (Pseudomonas aeruginosa [14]) was > 128 µg/mL. For the same molecule, the MIC (Pseudomonas aeruginosa [15]) was > 128 µg/mL, the Ratio (Escherichia coli [16]) was 64 and the “fold change (FC)” value (Pseudomonas aeruginosa [17]) was 4 - 128. For the same molecule, the MIC (Pseudomonas aeruginosa [18]) was 16 µg/mL, the MIC (Enterobacter cloacae [19]) was > 128 µg/mL and the Ratio (Acinetobacter baumannii [20]) was 16. For the same molecule, the Ratio (Pseudomonas aeruginosa [21]) was 128, the MIC (Enterobacter cloacae [22]) was > 128 µg/mL and the MIC (Pseudomonas aeruginosa [23]) was > 128 µg/mL. The Ratio (Escherichia coli [24]) was 32, the MIC (Enterobacter cloacae [25]) was 8 µg/mL and the Ratio (Enterobacter cloacae [26]) was 8. For the same molecule, the MIC (Enterobacter cloacae [27]) was > 128 µg/mL, the Ratio (Pseudomonas aeruginosa [28]) was 16 and the “fold change (FC)” value (Pseudomonas aeruginosa [29]) was 4 - 128. For the same molecule, the Activity (Escherichia coli [30]) was -2 CFU/ml, the “fold change (FC)” value (Pseudomonas aeruginosa [31]) was 4 - 128 and the “fractional inhibitory concentration index (FICI)” value (Pseudomonas aeruginosa [32]) was >4.
